Measurements: US20230285504A1, “INHIBITION OF REPERFUSION INJURY WITH A PSD-95 INHIBITOR” (NONO INC., priority 2020, published 2023)
No end group written: not given here.

Tests used:
[1] = tested on: patients with acute ischemic stroke (AIS) due to a large vessel arterial occlusion selected for endovascular thrombectomy; test: ESCAPE-NA1 phase 3 trial, exploratory re-analyses of dosing time (mRS 0-2 at 90 days); format: in vivo, human
Method: The details of the ESCAPE-NA1 methodology are published^2. In-brief, the trial was conducted at 48 sites globally. Adult patients aged 18 or greater with a disabling ischemic stroke (baseline National Institutes of Health Stroke Scale (NIHSS) score^11>5), CT evidence of a small-to-moderate ischemic core (ASPECTS 5-10)^12 and CTA evidence of LVO with a moderate-to-good collateral circulation^13,14 were enrolled in a window of up to 12 hours after the onset of stroke symptoms (last-seen-well time). Enrollment was stratified on the use of intravenous alteplase (yes/no) and declared initial thrombectomy device (stent-retriever or aspiration device). Randomized minimization was conducted within strata aimed to achieve distribution balance with regard to age, sex, baseline NIHSS, site of arterial occlusion, baseline ASPECTS and clinical site. Nerinetide and placebo vials were visually identical other than a unique vial number so that all trial personnel and patients were fully masked to treatment allocation.
After qualifying imaging, patients were treated with rapid EVT using currently available devices. Patients received intravenous alteplase^15 according to usual care following national or regional guidelines, before or during EVT, at a primary hospital prior to transfer or at the endovascular center. Treatment with alteplase was not a requirement for the study and interpretation of treatment guidelines was at the discretion of the treating team. Patients received trial drug (1:1 nerinetide:placebo), as a single dose of 2.6 mg/kg to a maximum dose of 270 mg as soon as possible after randomization. Time targets were imaging to randomization 30 minutes, imaging to study drug administration 60 minutes, and imaging to arterial access/puncture 60 minutes. Targets from imaging to reperfusion were 90th percentile 90 minutes and a median at 75 minutes.^16,17 Times (min) for workflow are summarized in Table 3.
The primary outcome was good outcome at 90 days as defined by a score of 0-2 on the modified Rankin scale (mRS) (range, 0 [no symptoms] to 6 [death]) for the assessment of neurologic functional disability^18-20. Secondary 90 day efficacy outcomes included neurological outcome as defined by the NIHSS of 0-2, functional independence in activities of daily living as defined by a Barthel Index score of 95, and mortality rates. Tertiary outcomes included assessments of stroke volumes on 24-hour imaging (MR or CT brain). Imaging interpretation was conducted at a central core laboratory and clinical data were verified by independent monitors. Infarct volumes were measured by summation of manual planimetric demarcation of infarct on axial imaging (636/1099 (57.9%) on CT and 463/1099 (42.1%) on MRI).
Analyses of efficacy in this stratum were conducted as per the primary analysis of ESCAPE-NA1 on the intention-to-treat (ITT) population, and comprised a logistic regression providing an adjusted estimate of effect size including treatment, the stratification variable of declared initial endovascular approach, and the baseline covariates of age, sex, baseline NIHSS score, baseline ASPECTS, occlusion location and clinical site. Analyses of secondary efficacy outcomes were conducted similarly to the primary analysis. To determine the impact of time metrics of interest on the efficacy of nerinetide (e.g., Onset to randomization, CT to reperfusion, Randomization to reperfusion, and Drug administration to reperfusion), the metrics variables were included in the regression analysis that was otherwise conducted like the primary analysis. Deceased patients were included in the ITT population with a mRS score of 6, a Barthel Index of 0 and NIHSS of 42. Missing primary outcomes (n=9) were imputed as the worst possible score, counted as poor outcome (mRS 3-6 dichotomy) and for mortality analysis, imputed as deaths. All analyses were performed with the use of STATA software (v16.0).

[2] = tested on: patients with acute ischemic stroke (AIS) due to a large vessel arterial occlusion selected for endovascular thrombectomy; conditions: published primary trial result; cited from earlier work
[3] = Plasma half-life in human; format: in vivo; conditions: intravenous, human equivalent concentrations, read-out: half-life of nerinetide
Text: Tat-NR2B9c has a plasma half-life in human plasma of about ten minutes. […] Alteplase (a recombinant form of tPA) has a half-life in human plasma of only about five minutes. But more significant for present purposes is the half-life of plasmin, which is induced by alteplase and other thrombolytic agents and is responsible for cleavage of Tat-NR2B9c. Plasmin has been reported to have a half-life in human plasma of about 4-8 hr.

[4] = Intrinsic fibrinolytic activity
[5] = no-alteplase, drug started 22 or more minutes from initial reperfusion
[6] = no-alteplase, long CT to reperfusion interval (>=73.5 minutes)
[7] = no-alteplase, study drug started less than 5 minutes after groin puncture

## YGRKKRRQRRRKLSSIESDV [nerinetide]
[1]; no-alteplase stratum, all time windows of 12 h enrollment, nerinetide 2.6 mg/kg vs placebo
  adj. OR for favorable outcome (mRS 0-2 at 90 days): 1.757
[1]; [5]
  absolute effect size of nerinetide over placebo: 16.25%
  relative effect: 50.0%
[1]; [6]
  adj OR for functional outcome (mRS 0-2): 5.100
  relative effect: 43.3%
  unadjusted absolute effect size: 16.52%
[1]; no-alteplase, long interval drug infusion start to initial reperfusion (>=22 minutes)
  adj OR for mRS(0-2): 2.715
[1]; no-alteplase, short CT to reperfusion interval (<73.5 minutes)
  adj OR for functional outcome (mRS 0-2): 0.825
[1]; no-alteplase, short interval drug infusion start to initial reperfusion (<22 minutes)
  adj OR for mRS(0-2): 1.13
[1]; no-alteplase, study drug more than 5 minutes after groin puncture
  adj OR, primary analysis (mRS 0-2): 1.50
[1]; no-alteplase, study drug started at any time less than 5 minutes after groin puncture
  adj OR, primary analysis (mRS 0-2): 2.33
[1]; [7]
  absolute effect size of nerinetide over placebo: 16.56%
  relative effect: 36.1%
[1]; no-alteplase, treated in longer intervals from reperfusion (summary)
  absolute effect sizes: approximately 16%
[1]; whole no-alteplase stratum
  absolute effect: 9.65%
[2]
  outcome in ESCAPE-NA1, nerinetide group that did not receive alteplase: improved functional independence, reduced mortality, and reduced infarct volume
  outcome in ESCAPE-NA1, patients that received alteplase: did not benefit
[3]
  half-life: 5 to 10 min
[4]
  intrinsic fibrinolytic activity: does not have any intrinsic fibrinolytic activity
